Reference: EP0126348A2, “Composition for rectal administration and method of promoting rectal drug absorption” (priority 1983, dated 1984)
Where two headings read alike, the source gives them in different places.

Key:
[1] = Blood concentration of drug after rectal administration of suppositories to fasted dogs (bioassay); assay type: in vivo; details: rectal suppository, 100 mg in potency
Protocol: (§1) The suppositories were administered rectally to dogs or rabbits fasted for 24 hours. After administration, blood or urine sampling was conducted at times intervals and the drug concentration in blood or urinary drug excretion was estimated by determining the activity concentration by the bioassay method.

[2] = Urinary excretion of drug after rectal administration of suppositories to fasted rabbits (bioassay); assay type: in vivo; details: rabbit, 100 mg, rectal suppository, 100 mg in potency, read-out: Urinary excretion (0-6 hours)
Protocol: as §1

[3] = in vivo, base WITEPSOL H-5, additive Na caprate, 3%
[4] = dog, blood, 100 mg, base WITEPSOL H-5, additive Na caprate, 3% NIKKOL MYS-40, 4%, read-out: AUC

## CC(C)(O/N=C(\C(=O)N[C@@H]1C(=O)N2C(C(=O)[O-])=C(C[n+]3ccccc3)CS[C@H]12)c1csc(N)n1)C(=O)O [Ceftazidime]
[1]; dog, in vivo, 100 mg, base WITEPSOL H-5, additive Na caprate, 3% Lysine, 4%, read-out: AUC
  AUC: 30.1 µg·h/mL
[1]; dog, in vivo, 100 mg, base WITEPSOL H-5, additive Na caprate, 3% Na citrate, 4%, read-out: AUC
  AUC: 27.6 µg·h/mL
[1]; dog, in vivo, 100 mg, base WITEPSOL H-5, additive Na caprate, 3% Sodium carbonate, 4%, read-out: AUC
  AUC: 29.8 µg·h/mL
[1]; base WITEPSOL H-5, additive Na caprate, 3% Sodium carbonate, 4%
  AUC: 30.9 µg·h/mL

## NC[C@H]1O[C@H](O[C@H]2[C@H](O)[C@@H](O[C@H]3O[C@H](CO)[C@@H](O)[C@H](N)[C@H]3O)[C@H](N)C[C@@H]2N)[C@H](N)[C@@H](O)[C@@H]1O [Bekanamycin]
[2]; urine, base WITEPSOL W-35, additive Glycerol monostearate, 3% Na caprate, 3%
  dose excreted at 6 h: 48.5%
[2]; urine, base WITEPSOL W-35, additive Na caprate, 3% Disodium phosphate,3%
  dose excreted at 6 h: 40%
[2]; urine, base WITEPSOL W-35, additive Na caprate, 3%
  dose excreted at 6 h: 30.1%

## NCC[C@H](O)C(=O)N[C@@H]1C[C@H](N)[C@@H](O[C@H]2O[C@H](CN)[C@@H](O)[C@H](O)[C@H]2O)[C@H](O)[C@H]1O[C@H]1O[C@H](CO)[C@@H](O)[C@H](N)[C@H]1O [Amikacin]
[1]; dog, in vivo, 100 mg, base WITEPSOL H-15, additive Na caprate, 3% NIKKOL BL-21, 3%, read-out: AUC
  AUC: 17.9 µg·h/mL
[1]; dog, in vivo, 100 mg, base WITEPSOL H-15, additive None, read-out: AUC
  AUC: 1 µg·h/mL
[2]; in vivo, base WITEPSOL H-5, additive Na caprate, 3% NIKKOL MYS-40, 4%
  dose excreted at 6 h: 56%
[2]; in vivo, base WITEPSOL H-5, additive Na caprate, 3% Sodium carbonate, 4%
  dose excreted at 6 h: 55.5%
[2]; [3]
  dose excreted at 6 h: 35%

## CN[C@@H]1[C@@H](O)[C@@H](O[C@@H]2[C@@H](O)[C@H](O[C@H]3OC(CN)=CC[C@H]3N)[C@@H](N)C[C@H]2N)OC[C@]1(C)O [Sisomicin]
[2]; urine, base WITEPSOL H-15, additive Na caprate, 2% NIKKOL BL-25, 4%
  dose excreted at 6 h: 51.6%
[2]; urine, base WITEPSOL H-15, additive Na caprate, 2%
  dose excreted at 6 h: 30.8%
[2]; urine, base WITEPSOL H-15, additive Na caprate, 3% Trisodium phosphate,4%
  dose excreted at 6 h: 55%

## CO/N=C(\C(=O)N[C@@H]1C(=O)N2C(C(=O)O)=C(CSc3nc(=O)c(=O)[nH]n3C)CS[C@H]12)c1csc(N)n1 [Cefatriaxone]
[1]; [4]
  AUC: 22.2 µg·h/mL

## Fortimicin
[1]; base WITEPSOL H-5, additive Na caprate, 3%
  AUC: 14.8 µg·h/mL
[1]; base WITEPSOL H-5, additive Na caprate, 3% NIKKOL BL-21, 4%
  AUC: 30.0 µg·h/mL
[1]; base WITEPSOL H-5, additive Na caprate, 3% NIKKOL MYS-40, 4%
  AUC: 21.7 µg·h/mL
[1]; base WITEPSOL H-5, additive Na caprate, 3% Sodium carbonate, 2%
  AUC: 21.7 µg·h/mL
[1]; base WITEPSOL H-5, additive None
  AUC: 1.2 µg·h/mL

## CCN[C@@H]1C[C@H](N)[C@@H](O[C@H]2OC(CN)=CC[C@H]2N)[C@H](O)[C@H]1O[C@H]1OC[C@](C)(O)[C@H](NC)[C@H]1O [Netilmicin]
[2]; urine, base WITEPSOL H-5, additive Na caprate, 3% Lysine, 4%
  dose excreted at 6 h: 48%
[2]; urine, base WITEPSOL H-5, additive Na caprate, 3% NIKKOL TO-10M, 4%
  dose excreted at 6 h: 52.6%
[2]; urine, base WITEPSOL H-5, additive Na caprate, 3%
  dose excreted at 6 h: 40%

## CNC[C@@H]1CC[C@@H](N)[C@@H](O[C@H]2[C@H](O)[C@@H](O[C@H]3OC[C@](C)(O)[C@H](NC)[C@H]3O)[C@H](N)C[C@@H]2N)O1 [Micronomicin]
[2]; in vivo, base WITEPSOL H-5, additive Na caprate, 3% Arginine Na, 4%
  dose excreted at 6 h: 48.2%
[2]; in vivo, base WITEPSOL H-5, additive Na caprate, 3% NIKKOL BL-21, 4%
  dose excreted at 6 h: 50.3%
[2]; [3]
  dose excreted at 6 h: 39.2%

## NC[C@@H]1CC[C@@H](N)[C@@H](O[C@H]2[C@H](O)[C@@H](O[C@H]3O[C@H](CO)[C@@H](O)[C@H](N)[C@H]3O)[C@H](N)C[C@@H]2N)O1 [Dibekacin]
[1]; dog, blood, 100 mg, base WITEPSOL H-5, additive NIKKOL MYS-40, 4%, read-out: AUC
  AUC: 1 µg·h/mL
[1]; dog, blood, 100 mg, base WITEPSOL H-5, additive Na caprate, 3% NIKKOL BL-21, 4% Disodium hydrogen phosphate, 1%, read-out: AUC
  AUC: 42 µg·h/mL
[1]; dog, blood, 100 mg, base WITEPSOL H-5, additive Na caprate, 3% NIKKOL BL-21, 4%, read-out: AUC
  AUC: 37 µg·h/mL
[1]; dog, blood, 100 mg, base WITEPSOL H-5, additive Na caprate, 3% NIKKOL MYS-40, 4% Sodium carbonate, 4%, read-out: AUC
  AUC: 39.9 µg·h/mL
[1]; [4]
  AUC: 27.4 µg·h/mL
[1]; dog, blood, 100 mg, base WITEPSOL H-5, additive Na caprate, 3% Sodium carbonate, 4%, read-out: AUC
  AUC: 24.4 µg·h/mL
[1]; dog, blood, 100 mg, base WITEPSOL H-5, additive Na caprate, 3%, read-out: AUC
  AUC: 14.4 µg·h/mL
[1]; dog, blood, 100 mg, base WITEPSOL H-5, additive None, read-out: AUC
  AUC: 0.8 µg·h/mL

## NC[C@H]1O[C@H](O[C@H]2[C@H](O)[C@@H](O[C@H]3O[C@H](CO)[C@@H](O)[C@H](N)[C@H]3O)[C@H](N)C[C@@H]2N)[C@H](N)C[C@@H]1O [Tobramycin]
[2]; in vivo, base WITEPSOL W-35, additive Na caprate, 2% NIKKOL BL-9, 4%
  dose excreted at 6 h: 53.8%
[2]; in vivo, base WITEPSOL W-35, additive Na caprate, 2%
  dose excreted at 6 h: 41.6%
[2]; in vivo, base WITEPSOL W-35, additive Na caprate, 3% Disodium tatrate, 4% NIKKOL BL-9, 4%
  dose excreted at 6 h: 49.2%
